Here are results for four molecules from patent US20100323011A1, “PHARMACEUTICAL COMPOSITIONS OF A COMBINATION OF METFORMIN AND A DIPEPTIDYL PEPTIDASE-IV INHIBITOR” (priority 2008, published 2010).

The conditions of series [1]: oral administration to human Type 2 diabetics; cited from earlier work.
The nature of series [2]: In vitro dissolution of sitagliptin phosphate from the drug film layer. It is filed as physicochemical. The settings on record: FIG. 4.

The structures appear in SMILES notation. Counter-ions that a name gives are not always drawn.

Consider `Cn1c(=O)cc(N2CCC[C@@H](N)C2)n(Cc2ccccc2C#N)c1=O` [alogliptin], for which, in series [1], the “effect on fasting glucose, postprandial glucose excursion and HbA1c” value (shortened to “effect on fasting glucose”) was “reduce fasting glucose and postprandial glucose excursion”.

With `N[C@@H](CC(=O)N1CCn2c(nnc2C(F)(F)F)C1)Cc1cc(F)c(F)cc1F` [sitagliptin phosphate, dihydrogenphosphate salt of (2R)-4-oxo-4-[3-(trifluoromethyl)-5,6-dihydro[1,2,4]triazolo[4,3-a]pyrazin-7(8H)-yl]-1-(2,4,5-trifluorophenyl)butan-2-amine], in series [2] (comparator JANUMET (immediate-release metformin HCl and sitagliptin phosphate)), the “dissolution of sitagliptin phosphate compared with sitagliptin phosphate in JANUMET” value is reported as “comparable”. In addition, in series [2] (drug film layer of the composition), the “time to complete dissolution of sitagliptin phosphate from the drug film layer” value was at most 30 min.

Consider `N[C@@H](CC(=O)N1CCn2c(nnc2C(F)(F)F)C1)Cc1cc(F)c(F)cc1F` [sitagliptin, (2R)-4-oxo-4-[3-(trifluoromethyl)-5,6-dihydro[1,2,4]triazolo[4,3-a]pyrazin-7(8H)-yl]-1-(2,4,5-trifluorophenyl)butan-2-amine], for which, in series [1], the “effect on fasting glucose” value was “reduce fasting glucose and postprandial glucose excursion”.

With `N#C[C@@H]1CCCN1C(=O)CNC12CC3CC(CC(O)(C3)C1)C2` [vildagliptin], the “effect on fasting glucose” value in series [1] is “reduce fasting glucose and postprandial glucose excursion”.
